Patent US8722123B2, “Antimicrobial composition and use as food treatment” (priority 2008, dated 2014)
Marks after values point to notes of the source that are not given here.

Columns and labels:
[1] = system: S. typhimurium DT 104 on alfalfa seeds; assay: S. typhimurium DT 104 inactivation on alfalfa seeds; assay type: cell-based, Salmonella typhimurium DT104; design: key to S. typhimurium DT 104 counts on seeds: +: Below the minimum detection level by direct plating (<1.7 log CFU/ml), but positive by enrichment culture.; −: Negative by direct plating and enrichment culture; conditions: for S. typhimurium DT 104 counts on seeds: alfalfa seeds inoculated with 10^8 CFU/g
alfalfa seed = assay: Seed germination percentage; conditions: treated for 1 hour at 21° C.
Method: To determine the germination percentage, treated and control seeds (5 gram per replicate) were placed on the surface of a plastic tray. A second tray containing 200 ml of sterile deionized water was placed with tray with seeds and water dropped into lower tray to maintain uniform moisture. The seeds were incubated at approximately 22° C. for 72 h.

SMILES: [Ca+2].[O-]Cl.[O-]Cl [20,000 ppm, Ca(OCl)2, pH 11.4, calcium hypochlorite]
- S. typhimurium DT 104 counts on seeds ([1]; dried 4 h at 21° C., 0 min of exposure): +^b (Below the minimum detection level by direct plating (<1.7 log CFU/ml), but positive by enrichment culture.)
- S. typhimurium DT 104 counts on seeds ([1]; dried 4 h at 21° C., 1 min of exposure): −^c
- S. typhimurium DT 104 counts on seeds ([1]; dried 4 h at 21° C., 2 min of exposure): −
- S. typhimurium DT 104 counts on seeds ([1]; dried 4 h at 21° C., 5 min of exposure): −
- S. typhimurium DT 104 counts on seeds ([1]; dried 4 h at 21° C., 10 min of exposure): −
- S. typhimurium DT 104 counts on seeds ([1]; dried 4 h at 21° C., 20 min of exposure): −
- S. typhimurium DT 104 counts on seeds ([1]; dried 4 h at 21° C., 30 min of exposure): −
- S. typhimurium DT 104 counts on seeds ([1]; dried 4 h at 21° C., 60 min of exposure): −
- S. typhimurium DT 104 counts on seeds ([1]; dried 24 h at 21° C., 0 min of exposure): + (Below the minimum detection level by direct plating (<1.7 log CFU/ml), but positive by enrichment culture.)
- S. typhimurium DT 104 counts on seeds ([1]; dried 24 h at 21° C., 1 min of exposure): + (Below the minimum detection level by direct plating (<1.7 log CFU/ml), but positive by enrichment culture.)
- S. typhimurium DT 104 counts on seeds ([1]; dried 24 h at 21° C., 2 min of exposure): −
- S. typhimurium DT 104 counts on seeds ([1]; dried 24 h at 21° C., 5 min of exposure): −
- S. typhimurium DT 104 counts on seeds ([1]; dried 24 h at 21° C., 10 min of exposure): −
- S. typhimurium DT 104 counts on seeds ([1]; dried 24 h at 21° C., 20 min of exposure): −
- S. typhimurium DT 104 counts on seeds ([1]; dried 24 h at 21° C., 30 min of exposure): −
- S. typhimurium DT 104 counts on seeds ([1]; dried 24 h at 21° C., 60 min of exposure): −
- S. typhimurium DT 104 counts on seeds ([1]; dried 48 h at 21° C., 0 min of exposure): + (Below the minimum detection level by direct plating (<1.7 log CFU/ml), but positive by enrichment culture.)
- S. typhimurium DT 104 counts on seeds ([1]; dried 48 h at 21° C., 1 min of exposure): + (Below the minimum detection level by direct plating (<1.7 log CFU/ml), but positive by enrichment culture.)
- S. typhimurium DT 104 counts on seeds ([1]; dried 48 h at 21° C., 2 min of exposure): −
- S. typhimurium DT 104 counts on seeds ([1]; dried 48 h at 21° C., 5 min of exposure): −
- S. typhimurium DT 104 counts on seeds ([1]; dried 48 h at 21° C., 10 min of exposure): + (Below the minimum detection level by direct plating (<1.7 log CFU/ml), but positive by enrichment culture.)
- S. typhimurium DT 104 counts on seeds ([1]; dried 48 h at 21° C., 20 min of exposure): −
- S. typhimurium DT 104 counts on seeds ([1]; dried 48 h at 21° C., 30 min of exposure): −
- S. typhimurium DT 104 counts on seeds ([1]; dried 48 h at 21° C., 60 min of exposure): −
- S. typhimurium DT 104 counts on seeds ([1]; dried 72 h at 21° C., 0 min of exposure): −
- S. typhimurium DT 104 counts on seeds ([1]; dried 72 h at 21° C., 1 min of exposure): −
- S. typhimurium DT 104 counts on seeds ([1]; dried 72 h at 21° C., 2 min of exposure): −
- S. typhimurium DT 104 counts on seeds ([1]; dried 72 h at 21° C., 5 min of exposure): −
- S. typhimurium DT 104 counts on seeds ([1]; dried 72 h at 21° C., 10 min of exposure): −
- S. typhimurium DT 104 counts on seeds ([1]; dried 72 h at 21° C., 20 min of exposure): + (Below the minimum detection level by direct plating (<1.7 log CFU/ml), but positive by enrichment culture.)
- S. typhimurium DT 104 counts on seeds ([1]; dried 72 h at 21° C., 30 min of exposure): + (Below the minimum detection level by direct plating (<1.7 log CFU/ml), but positive by enrichment culture.)
- S. typhimurium DT 104 counts on seeds ([1]; dried 72 h at 21° C., 60 min of exposure): −
- Salmonella level after treatment ([1]; seeds dried 24 h, 48 h, or 72 h, 5 min): undetectable by direct plating, but still detectable by enrichment culture
- germination rate of alfalfa seed (alfalfa seed): 47.3%
